Values quoted from earlier work as cited in patent publication US20120195873A1, “METHODS OF A[…] LOSS OF […]” (NESTEC S.A., priority 2009, published 2012).

Tests used:
type II muscle fibers = details: vitamin D deficient patients, pre- vs post-supplementation
[1] = system: lower extremity muscle performance; details: elderly; amounts bringing mean serum 25-OH Vitamin D to 66-84 nmol/L
skeletal muscle [2] = details: vitamin D deficient rats
[3] = 400 mg twice daily; heavy exercise, calcium loss through sweat
skeletal muscle [4] = details: animal data, exogenous 25-OH

In the case of vitamin D, the “atrophy of type II muscle fibers in biopsies” value (type II muscle fibers) is listed as “significant improvements were observed post-supplementation”, the “lower extremity muscle performance” value [1] is listed as “improves lower extremity muscle performance” and the muscle mass (skeletal muscle [2]) is listed as “increased muscle mass”. The “rate of myofibrillar protein degradation” value (skeletal muscle [2]) was “decreased rate of myofibrillar protein degradation” and the weight gain (skeletal muscle [2]) was “weight gain”.

In the case of `O=C([O-])[O-].[Ca+2]` [calcium carbonate], the “offset of exercise-induced net calcium loss” value [3] is listed as “sufficient to offset this loss”.

In the case of 25-Hydroxy Vitamin D [25-OH], the “skeletal muscle protein synthesis” value (skeletal muscle [4]) is given as “increases skeletal muscle protein synthesis”.
